This passage reports remaining activity results from article PMC8286840, “Identifying SARS-CoV-2 antiviral compounds by screening for small molecule inhibitors of Nsp3 papain-like protease” (Biochemical Journal, 2021).

The target in assay [1] is T1, SARS-CoV-2 PLpro (nsp3 1564–1878) (Severe acute respiratory syndrome coronavirus 2, UniProt P0DTD1). Put plainly: biochemical. The following applies: high concentration screen, read-out: % of control remaining. Also on record: FRET-quenched peptide (Pro3) cleavage by PLpro, 10 min pre-incubation, slope over 20 min, normalised to no-compound control.
Assay [2] concerns the target T1, SARS-CoV-2 PLpro (nsp3 1564–1878). Nature of the assay: biochemical. Also on record: FRET-quenched peptide (Pro3) cleavage by PLpro, 10 min pre-incubation, slope over 20 min, normalised to no-compound control. The note with it: low concentration screen, read-out: % of control remaining.

Molecules are shown by their SMILES. Where a name gives a salt, the structure may show the parent alone. Read-outs that look alike come from different tables or passages of the source. Where a SMILES comes first, the peptide text is derived from it.

As for `CC(C)OC(=O)CCC/C=C\C[C@@H]1[C@@H](CC[C@@H](O)CCc2ccccc2)[C@H](O)C[C@@H]1O` [Latanoprost], the results for the remaining activity at 3.75 µM in assay [1] (Well no.=1769) and in assay [1] (Well no.=6843) were 95.3% and 98.9%, respectively. For the same compound, the remaining activity at 1.25 µM was 97.5% in assay [2] (Well no.=1769) and 100% in assay [2] (Well no.=6843).
`COc1ccc(C[C@H]2c3cc(OC)c(OC)cc3CC[N+]2(C)C)cc1OC` [Laudanosine methiodide]: the remaining activity at 3.75 µM in assay [1] (Well no.=3589) is 106%. In addition, the remaining activity at 1.25 µM in assay [2] (Well no.=3589) worked out at 103%.
With `CCCCCCCCCCCC(=O)O` [Lauric acid], in assay [1] (Well no.=7169), the remaining activity at 3.75 µM was 98.4%. In addition, in assay [2] (Well no.=7169), the remaining activity at 1.25 µM was 96.8%.
As for `O=C(O)c1cc(N(Cc2ccccc2O)Cc2cc(O)ccc2O)ccc1O` [Lavendustin A], the remaining activity at 3.75 µM in assay [1] (Well no.=3837) is 94.6%. Moreover, the remaining activity at 1.25 µM in assay [2] (Well no.=3837) amounted to 90.9%.
As to `O=C(O)c1cc(N(Cc2ccccc2O)Cc2ccccc2O)ccc1O` [Lavendustin B], the remaining activity at 3.75 µM in assay [1] (Well no.=3807) was 98%. The remaining activity at 1.25 µM in assay [2] (Well no.=3807) stood at 95.8%.
In the case of `Cc1oncc1C(=O)Nc1ccc(C(F)(F)F)cc1` [Leflunomide], the values for the remaining activity at 3.75 µM in assay [1] (Well no.=787) and in assay [1] (Well no.=2268) were 105% and 104%, respectively. The remaining activity at 1.25 µM in assay [2] (Well no.=787) stood at 104%; in assay [2] (Well no.=2268), 96.5%.
With `Nc1cccc2c1CN(C1CCC(=O)NC1=O)C2=O` (stereo not drawn) [Lenalidomide (Revlimid)], the remaining activity at 3.75 µM in assay [1] (Well no.=4838) was found to be 97.8%. In assay [2] (Well no.=4838), the remaining activity at 1.25 µM is 97.7%.
As to `O=C(O)CSc1nnc(Br)n1-c1ccc(C2CC2)c2ccccc12` [Lesinurad], the remaining activity at 3.75 µM in assay [1] (Well no.=8158) was found to be 104%. In addition, the remaining activity at 1.25 µM in assay [2] (Well no.=8158) stood at 102%.
In the case of `N#Cc1ccc(C(c2ccc(C#N)cc2)n2cncn2)cc1` [Letrozole], the remaining activity at 3.75 µM in assay [1] (Well no.=1822) was determined as 98.2%. The remaining activity at 1.25 µM in assay [2] (Well no.=1822) is 97.8%.
Regarding `CC1=CC(=O)C2=C(C)CC[C@@H]3[C@H](OC(=O)[C@H]3C)[C@@H]12` [Leucomisine], in assay [1] (Well no.=3248), the remaining activity at 3.75 µM stood at 96.8%. Besides, the remaining activity at 1.25 µM in assay [2] (Well no.=3248) worked out at 94.5%.
Turning to `Nc1nc(=O)c2c([nH]1)NCC(CNc1ccc(C(=O)N[C@@H](CCC(=O)O)C(=O)O)cc1)N2C=O` (stereo partly drawn) [Leucovorin Calcium], the remaining activity at 3.75 µM in assay [1] (Well no.=4757) was determined as 107%. For the same compound, in assay [2] (Well no.=4757), the remaining activity at 1.25 µM was 103%.
With `CC(C)C[C@H](N)C(=O)N[C@@H](Cc1ccccc1)C(=O)O` [Leucyl-phenylalanine] (H-Leu-Phe-OH), the figures for the remaining activity at 3.75 µM in assay [1] (Well no.=6291) and in assay [1] (Well no.=8754) were 102% and 87.4%, respectively. Further, the remaining activity at 1.25 µM came to 104% in assay [2] (Well no.=6291) and 87.2% in assay [2] (Well no.=8754).
As for `CCCCCCCC[C@H](O)/C=C/C=C\C=C\[C@H](O)CCCC(=O)O` [Leukotriene B3], in assay [1] (Well no.=4421), the remaining activity at 3.75 µM was 101%. Further, the remaining activity at 1.25 µM in assay [2] (Well no.=4421) was 102%.
In the case of `CCCCC/C=C\C[C@@H](O)/C=C/C=C/C=C\[C@@H](O)CCCC(=O)O` [Leukotriene B4], the remaining activity at 3.75 µM in assay [1] (Well no.=4423) amounted to 97.4%. Further, in assay [2] (Well no.=4423), the remaining activity at 1.25 µM was 101%.
Consider `CCCCC/C=C\C\C=C/C=C/C=C/[C@@H](SC[C@H](NC(=O)CC[C@H](N)C(=O)O)C(=O)NCC(=O)O)[C@@H](O)CCCC(=O)O` [Leukotriene C4], for which, in assay [1] (Well no.=4429), the remaining activity at 3.75 µM worked out at 101%. Also, the remaining activity at 1.25 µM in assay [2] (Well no.=4429) is 102%.
For `CCCCC/C=C\C\C=C/C=C/C=C/[C@@H](SC[C@H](N)C(=O)NCC(=O)O)[C@@H](O)CCCC(=O)O` [Leukotriene D4], the remaining activity at 3.75 µM in assay [1] (Well no.=4431) is 98.6%. The remaining activity at 1.25 µM in assay [2] (Well no.=4431) was found to be 100%.
Turning to `CCCCC/C=C\C\C=C/C=C/C=C/[C@@H](SC[C@H](N)C(=O)O)[C@@H](O)CCCC(=O)O` [Leukotriene E4], in assay [1] (Well no.=4433), the remaining activity at 3.75 µM amounted to 99.5%. Also, the remaining activity at 1.25 µM in assay [2] (Well no.=4433) was 99.2%.
Consider `CC(=O)N[C@@H](CC(C)C)C(=O)N[C@@H](CC(C)C)C(=O)N[C@H](C=O)CCCN=C(N)N` [Leupeptin Hemisulfate], for which the remaining activity at 3.75 µM in assay [1] (Well no.=8716) turned out to be 91%. In assay [2] (Well no.=8716), the remaining activity at 1.25 µM was determined as 92%.
For the compound `CCNC(=O)[C@@H]1CCCN1C(=O)[C@H](CCCNC(=N)N)NC(=O)[C@H](CC(C)C)NC(=O)[C@@H](CC(C)C)NC(=O)[C@H](Cc1ccc(O)cc1)NC(=O)[C@H](CO)NC(=O)[C@H](Cc1c[nH]c2ccccc12)NC(=O)[C@H](Cc1c[nH]cn1)NC(=O)[C@@H]1CCC(=O)N1` [Leuprolide (Acetate)], the remaining activity at 3.75 µM in assay [1] (Well no.=6469) worked out at 104%. The remaining activity at 1.25 µM in assay [2] (Well no.=6469) was 104%.
`C=CCN1CC[C@]23CCCC[C@H]2[C@H]1Cc1ccc(O)cc13` [Levallorphan tartrate]: the remaining activity at 3.75 µM in assay [1] (Well no.=1012) is 99.9%. Besides, the remaining activity at 1.25 µM in assay [2] (Well no.=1012) is 99.1%.
For `C=CCN1CC[C@]23CCCC[C@H]2[C@H]1Cc1ccc(O)cc13` [Levallorphan], the remaining activity at 3.75 µM in assay [1] (Well no.=1702) was found to be 103%. In addition, the remaining activity at 1.25 µM in assay [2] (Well no.=1702) amounted to 106%.
Turning to `c1ccc([C@H]2CN3CCSC3=N2)cc1` [Levamisole], the remaining activity at 3.75 µM in assay [1] (Well no.=2260) amounted to 94.2%. Moreover, the remaining activity at 1.25 µM in assay [2] (Well no.=2260) is 97.8%.
For the compound `CC[C@@H](C(N)=O)N1CCCC1=O` [Levetiracetam], in assay [1] (Well no.=1820), the remaining activity at 3.75 µM was determined as 94.4%. The remaining activity at 1.25 µM in assay [2] (Well no.=1820) was 96.8%.
Regarding `CC(C)NC[C@H](O)COc1ccc(CCOCC2CC2)cc1` [Levobetaxolol (hydrochloride)], the remaining activity at 3.75 µM in assay [1] (Well no.=6429) turned out to be 90.9%. In addition, the remaining activity at 1.25 µM in assay [2] (Well no.=6429) was 91.4%.
Regarding `CCCCN1CCCC[C@H]1C(=O)Nc1c(C)cccc1C` [Levobupivacaine hydrochloride], the remaining activity at 3.75 µM in assay [1] (Well no.=6043) stood at 105%. Further, in assay [2] (Well no.=6043), the remaining activity at 1.25 µM was found to be 98.8%.
Turning to `C[C@@H]1CN([C@H]2CC[C@](C#N)(c3ccc(F)cc3)CC2)CC[C@]1(C(=O)O)c1ccccc1` [Levocabastine.HCl], the remaining activity at 3.75 µM in assay [1] (Well no.=2058) worked out at 99.2%. Also, the remaining activity at 1.25 µM in assay [2] (Well no.=2058) was 97.6%.
Take `N[C@@H](Cc1ccc(O)c(O)c1)C(=O)O` [Levodopa]: the remaining activity at 3.75 µM in assay [1] (Well no.=2264) came out at 95.2%. Besides, the remaining activity at 1.25 µM in assay [2] (Well no.=2264) stood at 93.8%.
As to `OC[C@@H](O)CN1CCN(c2ccccc2)CC1` [Levodropropizine], in assay [1] (Well no.=6189), the remaining activity at 3.75 µM was found to be 82.2%. In assay [2] (Well no.=6189), the remaining activity at 1.25 µM was 97.3%.
For `C[C@H]1COc2c(N3CCN(C)CC3)c(F)cc3c(=O)c(C(=O)O)cn1c23` [Levofloxacin], in assay [1] (Well no.=2266), the remaining activity at 3.75 µM came to 98.5%. Further, the remaining activity at 1.25 µM in assay [2] (Well no.=2266) was determined as 97.9%.
As for `CN1c2c([nH]c(N)nc2=O)NC[C@@H]1CNc1ccc(C(=O)N[C@@H](CCC(=O)O)C(=O)O)cc1` [Levomefolic acid], the remaining activity at 3.75 µM in assay [1] (Well no.=7940) worked out at 101%. Further, the remaining activity at 1.25 µM in assay [2] (Well no.=7940) amounted to 101%.
